{
  "source": "patent US20070225240A1",
  "about": "“Screening Assay and Treatment” (priority 2003, published 2007)",
  "key": {"ASPP2 [1]": {"test_system": "ASPP2", "conditions": "cells treated with UO126, cell line not stated"}, "ASPP1 and ASPP2": {"test_system": "ASPP1 and ASPP2", "procedure": "(§1) Wild-type ASPP2 (A) or mutant ASPP2 (S827A) (B) were transfected in Saos2 cells in the presence or absence of H-rasv12. 16 hours after transfection, the cells were treated with cycloheximide (50 μg/ml) and lysates were made at the times indicated after cycloheximide treatment. The expression of ASPP2 and H-rasV12 were detected with antibodies V5 or HA, respectively. Actin was used as a loading control. (C) MCF7 cells were starved of serum for 24 hours in 0.5% FCS before treatment with 50 μg/ml cycloheximide (CHX) and 20% FCS and EGF, in the presence (right panel) or absence (left panel) of UO126 for the times indicated. 4 mg of lysate was immunoprecipitated with anti-ASPP2 antibody DX54.10 and the presence of ASPP2 was detected by Western blot with the polyclonal ASPP2/77 antibody (top lanes). Phosphorylated MAPK was detected with phospho-specific MAPK antibody and the total MAPK was detected with a MAPK antibody. The intensity of the. ASPP2 protein immunoprecipitated was quantified and the bands at 0 hours of CHX addition was set as 100 for both cells, as shown by the graph (right panel). (D) MDA Panc3 cells were treated with 50 μg/ml cycloheximide, 20 μM UO126 or both cycloheximide and UO126 for the times indicated. The lysate was resolved on SDS-PAGE gels and ASPP1 and ASPP2 protein levels were detected with mAbASPP1.54.2 and DX54.10 antibodies, respectively, and Mcl-1 was detected with an anti-Mcl1 polyclonal antibody.\n(§2) Cells were either transfected with the appropriate expression plasmids or treated with 20 ng/ml EGF and 20 μM UO126 as indicated, the day prior to cycloheximide treatment. Cycloheximide was added to cells at a final concentration of 50 μg/ml in the appropriate medium. Cells were harvested and lysed at the time points indicated."}, "ASPP2 [2]": {"test_system": "ASPP2", "conditions": "MCF7, 20% FCS and EGF, cycloheximide 50 μg/ml, with versus without UO126", "procedure": "as §1, §2"}, "[3]": {"test_system": "transactivation function of p53", "experiment": "Transactivation assay, bax-luciferase reporter, Saos2 cells", "assay_type": "cell-based", "conditions": "EGF 20 ng/ml + 20% FCS, UO126 20 μM", "procedure": "FIG. 27 Endogenous MAPK is necessary for ASPP1 and ASPP2 to stimulate the activity of p53. (A) Saos2 cells were co-transfected with bax-luciferase, ASPP2 and p53. After transfection, medium containing EGF (20 ng/ml) and 20% FCS were added to the cells, in the presence or absence of the MAPK inhibitor UO126 (20 μM). The negative control contained an equal volume of DMSO. […] (B) The putative MAPK phosphorylation sites of ASPP1 and ASPP2 were mutated to alanine, to generate ASPP1 (S671A), ASPP1 (S746), ASPP2 (S698A) and ASPP2 (S827A). Wild-type and mutant ASPP2 (B) or ASPP1 (C) were co-transfected with p53 and Bax-luciferase reporter in the presence or absence of RafCX (B) or K-rasV12 (C) in Saos2 cells, as indicated. Expression levels of ASPP1, p53 and K-rasV12 are shown in the right panel. PCNA was used as a loading control. The graph represents the fold over p53 and ASPP1 or ASPP2 taken from three independent experiments. FCS, foetal calf serum; EGF, epidermal growth factor; and\nSaos2 cells (7×10^5) were plated 24 hours prior to transfection in 6-cm-diameter dishes. All transactivation assays contained 1 μg of reporter plasmid. […] The fold increase of p53 and ASPP by HRasV12/K-RasV12/RafCX was determined by the activity of p53 and ASPP in combination with RasV12/RafCX divided by the activity of p53 and ASPP alone."}, "[4]": {"conditions": "MDA Panc3, cycloheximide 50 μg/ml + UO126 20 μM compared to cycloheximide alone"}},
  "note": "Read-outs that look alike come from different tables or passages of the source.",
  "data": [
    {"smiles": "N#CC(=C(/N)Sc1ccccc1N)/C(C#N)=C(/N)Sc1ccccc1N", "note": "[UO126]", "values": [
      {"measurement": "ASPP2 protein levels", "setting": "ASPP2 [1]", "value": "decrease in ASPP2 protein levels"},
      {"measurement": "ASPP1 expression levels", "setting": "ASPP1 and ASPP2; [4]", "value": "significantly decreased"},
      {"measurement": "ASPP2 expression levels", "setting": "ASPP1 and ASPP2; [4]", "value": "significantly decreased"},
      {"measurement": "Mcl-1 stability (control)", "setting": "ASPP1 and ASPP2; MDA Panc3, cycloheximide, presence or absence of UO126", "value": "no difference in its stability"},
      {"measurement": "ASPP2 protein levels", "setting": "ASPP2 [2]", "value": "significantly decreased"},
      {"measurement": "transactivation function of p53 when ASPP2 was present", "setting": "[3]; p53 + ASPP2", "value": "significantly inhibited"},
      {"measurement": "transactivation function of p53 alone", "setting": "[3]; p53 without ASPP2", "value": "small effect"}
    ]}
  ]
}
